Tests used:
Assay in all cases: relative viability (nuclei count vs DMSO), 5 days (fraction); higher = more cells survive
[1] = compound: CCCS(=O)(=O)Nc1ccc(F)c(C(=O)c2c[nH]c3ncc(-c4ccc(Cl)cc4)cc23)c1F [Vemurafenib] + C[C@]1(O)C[C@@H](c2nc(-c3ccc4ccc(-c5ccccc5)nc4c3)c3c(N)nccn32)C1 [Linsitinib] (partner 1 µM)
How it was run: (§1)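 For relative viability, nuclei counts in treated wells were divided by those in vehicle wells. Lung cancer cell lines had been pin-tool dosed in 1536-well plates the day after seeding and cultured for 5 days, then fixed and stained in one step (final 0.05% Triton X-100, 1% formaldehyde, 1 ug/ml Hoechst) and imaged at 4×. Doses were one drug alone or a fixed anchor-drug dose plus five library-drug doses (not always all listed) in √10 steps, and values are duplicate-plate medians.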

[2] = compound: COc1cccc2cc(-c3nc([C@H]4CC[C@H](C(=O)O)CC4)n4ncnc(N)c34)[nH]c12 [OSI-027] + NC(=O)Nc1cc(-c2cccc(F)c2)sc1C(=O)N[C@H]1CCCNC1 [AZD7762] (partner 0.2 µM)
How it was run: as §1

[3] = compound: Cc1nc(NC(=O)N2CCC[C@H]2C(N)=O)sc1-c1ccnc(C(C)(C)C(F)(F)F)c1 [Alpelisib] + CCNC(=O)c1noc(-c2cc(C(C)C)c(O)cc2O)c1-c1ccc(CN2CCOCC2)cc1 [Luminespib] (partner 0.01 µM)
How it was run: as §1

[4] = compound: Cc1nc(NC(=O)N2CCC[C@H]2C(N)=O)sc1-c1ccnc(C(C)(C)C(F)(F)F)c1 [Alpelisib] + O=C(CCCCCCC(=O)Nc1ccccc1)NO [Vorinostat] (partner 1 µM)
How it was run: as §1

Cell Line	relative viability ([1]; first compound 0.03162 µM)	relative viability ([1]; first compound 0.3162 µM)	relative viability ([1]; first compound 1 µM)	relative viability ([2]; first compound 0.01 µM)	relative viability ([2]; first compound 0.03162 µM)	relative viability ([2]; first compound 0.1 µM)	relative viability ([2]; first compound 0.3162 µM)	relative viability ([2]; first compound 1 µM)	relative viability ([3]; first compound 0.04 µM)	relative viability ([3]; first compound 0.1265 µM)	relative viability ([3]; first compound 0.4 µM)	relative viability ([3]; first compound 1.265 µM)	relative viability ([3]; first compound 4 µM)	relative viability ([4]; first compound 0.04 µM)	relative viability ([4]; first compound 0.1265 µM)	relative viability ([4]; first compound 0.4 µM)	relative viability ([4]; first compound 1.265 µM)	relative viability ([4]; first compound 4 µM)	relative viability ([1]; first compound 0.1 µM)
EKVX	0.942	1.03	1.02	0.694	0.726	0.666	0.692	0.562	0.877	0.712	0.961	0.844	0.552	0.584	0.657	0.928	0.597	0.456	–
EMC-BAC-2	0.798	0.807	0.807	1.05	1.14	0.833	0.791	0.63	1.24	1.03	1.16	0.932	0.707	0.448	–	0.455	0.278	0.261	0.695
EPLC-272H	1.03	1.14	1.11	0.262	0.212	0.162	0.0961	0.124	0.74	0.253	0.155	0.19	0.164	0.474	0.455	0.465	0.209	0.222	0.824
H3255	1	0.757	0.983	0.888	0.958	0.714	0.832	0.613	0.896	0.765	1.17	0.733	0.625	0.778	0.733	0.826	0.613	0.496	–
HARA	0.942	0.987	0.771	0.27	0.301	0.36	0.419	0.365	0.406	0.955	0.896	0.515	0.341	0.528	0.52	0.511	0.305	0.391	–
HCC-15	0.855	0.964	0.824	1.14	1.21	1.19	1.28	0.986	0.252	0.292	0.336	0.423	0.145	0.913	0.863	0.908	0.598	0.704	0.743
HCC-44	0.612	0.709	0.716	0.984	1.03	1.03	1.06	1.1	1.11	1.08	1.2	0.614	0.84	1.1	1.05	1.11	1.04	1.18	0.67
HCC-78	0.627	0.679	0.502	0.62	0.638	0.488	0.499	0.354	–	–	–	–	–	0.363	0.392	0.478	0.326	0.342	0.458
HCC-366	0.637	–	0.601	0.393	0.325	0.216	0.285	0.217	–	–	–	–	–	0.429	0.356	0.353	0.208	0.156	0.603

Reference: the supplement of paper PMC10307832
